Experimental data as given in patent US20060189546A1, “Compounds for treating autoimmune and demyelinating diseases” (priority 2005, published 2006).

Test system: colorectal cancer cell lines (HT29 & HCT116)
Test: Microarray gene expression, cells grown with Symadex at the GI50 concentration
Format: cell-based, human
Excerpt: Two colorectal cancer cell lines (HT29 & HCT116) were chosen for study, whose behavior as rapidly proliferating invasive cells could be generalized to many other such cell types from different tissue origins. The two lines were immortalized colon carcinomas. Their gene expression patterns are known to mimic the behavior of neuro-enteric cells and therefore provide an appropriate simulation of the kinds of regulatory patterns that would be found in cells of similar epithelial or endothelial origin. Cells with these ontological roots are also suitable models for the kinds of autoimmune and inflammatory susceptibilities that are common in tissues of neuroenteric origin, such as those in which inflammatory bowel disease would present itself.
Frozen cell pellets were lysed in triplicate and total RNA isolated by purification over spin columns (all reagents from Ambion). After QC acceptance for purity, total RNA was converted to cRNA by linear amplification and 10 μg samples were applied to CodeLink Human Whole Genome Bioarrays (GE Healthcare and GenUs Biosystems).
Arrays were processed in triplicate and comparisons made after robust statistical analysis of replicate variability. […] False discovery rates and representation in standardized gene ontologies/pathways were then determined by filtering the “fold” changes in expression with open access software packages, EASE and GoMiner, and with Pathways Analysis (Ingenuity Systems). Functional annotations were then explored further in the MedMiner literature search environment.
A listing of these is shown in Table 3, in which the first column data presents the fold change against control, the second column cites the gene symbol, the third column cites the Genbank Accession, and the fourth column provides an abridged description of the gene's function.

CCN(CC)CCNc1ccc2ncn3c4ccc(O)cc4c(=O)c1c23 [Symadex™, 5-[[(diethylamino)ethyl]amino]-8-hydroxyimidazo[4,5,1-de]-acridine-6-one]
fold down-regulation of SULT4A1: ~300 fold | fold down-regulation of SYNE1: 1500 fold | Mean fold change over control: NT5C3 (AA188573): −2.08 | Mean fold change over control: SLC9A7 (AA279477): −8.20 | Mean fold change over control: PPP2R5A (AA496141): −36.93 | Mean fold change over control: ACYP1 (AA664719): −2.07 | Mean fold change over control: PRLR (AA708864): −25.92 | Mean fold change over control: UBL4 (AA873769): −10.12 | Mean fold change over control: PPP1R9A (AB033048): −26.54 | Mean fold change over control: MAP6 (AB058781): −12.89 | Mean fold change over control: ASAH2 (AF250847): −2.21 | Mean fold change over control: MTIF2 (AI064964): −59.05 | Mean fold change over control: NEB (AI079911): −6.89 | Mean fold change over control: MGAT4A (AI364966): −10.83 | Mean fold change over control: EIF2AK4 (AI630242): −15.24 | Mean fold change over control: ATP1B4 (AI659245): −8.24 | Mean fold change over control: VAPA (AI671488): −12.46 | Mean fold change over control: PAFAH1B1 (AI674778): −12.85 | Mean fold change over control: PMPCB (AK090763): −15.36 | Mean fold change over control: IL1RAP (AK095107): −11.23 | Mean fold change over control: PFKL (AK098228): −10.55 | Mean fold change over control: KIF5A (AL118561): −11.04 | Mean fold change over control: LNX (AL565198): −87.48 | Mean fold change over control: ACTA2 (AL713608): −17.00 | Mean fold change over control: DHFR (AU127142): −2.95 | Mean fold change over control: SIN3B (AW051366): −2.93 | Mean fold change over control: NDUFV3 (AW139027): −10.52 | Mean fold change over control: TSFM (AW603708): −2.11 | Mean fold change over control: PXN (AW969600): −6.00 | Mean fold change over control: PTPRG (BC047734): −18.91 | Mean fold change over control: TRA2A (BF093914): −2.55 | Mean fold change over control: RPL4 (BF308998): −39.17 | Mean fold change over control: PLXNA3 (BF926082): −8.04 | Mean fold change over control: ITGA9 (BF959890): −27.91 | Mean fold change over control: MT2A (BG505162): −2.09 | Mean fold change over control: PECAM1 (BG739826): −17.53 | Mean fold change over control: NCF1 (BI021745): −33.67 | Mean fold change over control: FNTA (BI715309): −9.02 | Mean fold change over control: RB1 (BI769614): −84.42 | Mean fold change over control: ENG (BM665467): −6.35 | Mean fold change over control: MT1A (BM684446): −16.21 | Mean fold change over control: RPS3 (BM693455): −68.37 | Mean fold change over control: MAPT (BM714794): −26.53 | Mean fold change over control: NT5E (BM994339): −17.10 | Mean fold change over control: MXD3 (BQ053282): −2.66 | Mean fold change over control: RYR3 (BU533957): −2.43 | Mean fold change over control: ZNF145 (BU607554): −30.18 | Mean fold change over control: CASR (BX106711): −11.45 | Mean fold change over control: EIF4EL3 (BX111619): −15.36 | Mean fold change over control: GNAL (BX116836): −18.16 | Mean fold change over control: GPR1 (CB992712): −11.49 | Mean fold change over control: OLR1 (CD678960): −16.33 | Mean fold change over control: TMPO (H57815): −2.64 | Mean fold change over control: ACVRL1 (NM_000020): −9.43 | Mean fold change over control: AGT (NM_000029): −22.71 | Mean fold change over control: APOA1 (NM_000039): −13.15 | Mean fold change over control: BLM (NM_000057): −2.58 | Mean fold change over control: COL1A2 (NM_000089): −54.48 | Mean fold change over control: CYP19A1 (NM_000103): −20.65 | Mean fold change over control: FBN1 (NM_000138): −13.00 | Mean fold change over control: GIPR (NM_000164): −19.73 | Mean fold change over control: GLA (NM_000169): −2.51 | Mean fold change over control: SPTB (NM_000347): −16.71 | Mean fold change over control: ITGA2B (NM_000419): −10.64 | Mean fold change over control: NCF2 (NM_000433): −21.83 | Mean fold change over control: OXCT (NM_000436): −2.68 | Mean fold change over control: SHOX (NM_000451): −7.34 | Mean fold change over control: HNF4A (NM_000457): −7.42 | Mean fold change over control: NR0B1 (NM_000475): −15.94 | Mean fold change over control: TYRP1 (NM_000550): −12.47 | Mean fold change over control: IL13RA2 (NM_000640): −9.79 | Mean fold change over control: ADH1C (NM_000669): −12.02 | Mean fold change over control: CHRNA5 (NM_000745): −2.14 | Mean fold change over control: DCK (NM_000788): −1.94 | Mean fold change over control: GABRA3 (NM_000808): −10.14 | Mean fold change over control: PRIM1 (NM_000946): −3.47 | Mean fold change over control: SCNN1G (NM_001039): −14.52 | Mean fold change over control: SLC6A4 (NM_001045): −19.44 | Mean fold change over control: ADCYAP1 (NM_001117): −21.74 | Mean fold change over control: BIRC5 (NM_001168): −1.91 | Mean fold change over control: PRDM1 (NM_001198): −3.78 | Mean fold change over control: CSE1L (NM_001316): −2.53 | Mean fold change over control: TADA2L (NM_001488): −2.04 | Mean fold change over control: HSPB2 (NM_001541): −13.76 | Mean fold change over control: BGN (NM_001711): −12.57 | Mean fold change over control: CD58 (NM_001779): −2.40 | Mean fold change over control: CDC2 (NM_001786): −2.09 | Mean fold change over control: CDC25C (NM_001790): −2.99 | Mean fold change over control: CKS1B (NM_001826): −2.38 | Mean fold change over control: CREM (NM_001881): −2.13 | Mean fold change over control: DSC3 (NM_001941): −89.97 | Mean fold change over control: DUT (NM_001948): −2.08 | Mean fold change over control: FBLN1 (NM_001996): −17.42 | Mean fold change over control: FCAR (NM_002000): −11.62 | Mean fold change over control: H2AFX (NM_002105): −2.31 | Mean fold change over control: H2AFZ (NM_002106): −2.35 | Mean fold change over control: HMGB1 (NM_002128): −1.97 | Mean fold change over control: HNRPA2B1 (NM_002137): −1.93 | Mean fold change over control: IL7R (NM_002185): −25.20 | Mean fold change over control: ITGAE (NM_002208): −2.12 | Mean fold change over control: KCNJ15 (NM_002243): −6.83 | Mean fold change over control: KRT13 (NM_002274): −3.34 | Mean fold change over control: LTB (NM_002341): −12.57 | Mean fold change over control: MAD2L1 (NM_002358): −3.14 | Mean fold change over control: MAZ (NM_002383): −1.89 | Mean fold change over control: NUDT1 (NM_002452): −1.89 | Mean fold change over control: NDUFA6 (NM_002490): −2.51 | Mean fold change over control: NDUFB3 (NM_002491): −15.58 | Mean fold change over control: NFKBIB (NM_002503): −2.01 | Mean fold change over control: NTHL1 (NM_002528): −2.34 | Mean fold change over control: PAFAH1B2 (NM_002572): −2.25 | Mean fold change over control: PCSK2 (NM_002594): −16.89 | Mean fold change over control: POLE2 (NM_002692): −2.62 | Mean fold change over control: MAPK13 (NM_002754): −2.14 | Mean fold change over control: RAD51 (NM_002875): −2.21 | Mean fold change over control: RFC4 (NM_002916): −2.02 | Mean fold change over control: RPA3 (NM_002947): −2.54 | Mean fold change over control: SFRS3 (NM_003017): −2.84 | Mean fold change over control: ITSN1 (NM_003024): −15.06 | Mean fold change over control: SNAI2 (NM_003068): −17.45 | Mean fold change over control: SRY (NM_003140): −13.79 | Mean fold change over control: TFAP2A (NM_003220): −11.00 | Mean fold change over control: TK1 (NM_003258): −2.34 | Mean fold change over control: NR2E1 (NM_003269): −54.82 | Mean fold change over control: TNP1 (NM_003284): −36.20 | Mean fold change over control: TTK (NM_003318): −2.24 | Mean fold change over control: VRK1 (NM_003384): −2.79 | Mean fold change over control: DEK (NM_003472): −2.36 | Mean fold change over control: CSRP3 (NM_003476): −26.26 | Mean fold change over control: ZNF282 (NM_003575): −31.24 | Mean fold change over control: FOXN1 (NM_003593): −9.60 | Mean fold change over control: STK6 (NM_003600): −1.92 | Mean fold change over control: SEMA7A (NM_003612): −16.54 | Mean fold change over control: HAT1 (NM_003642): −2.63 | Mean fold change over control: COPS3 (NM_003653): −2.54 | Mean fold change over control: CAMK1 (NM_003656): −1.92 | Mean fold change over control: IL1RL1 (NM_003856): −28.60
